Measured values: patent publication US9034645B2, “Methods of identifying inhibitors of gene silencing in mammalian cells” (Oregon Health & Science University, priority 2008, dated 2015)

Experiments:
Assay type in all cases: cell-based, mouse
Ptet-HPRT [1] = assay: Induction of silencing via repression of Ptet-HPRT by Dox (TG resistance frequency); details: 1 μM Dox 7 days, then TG and puromycin selection without Dox
Method: FIG. 2 is a bar graph showing silencing frequency as a function of time of Dox exposure. HPRT 3 cells with Ptet-HPRT were exposed to 1 μM Dox for the times indicated before being released from Dox and selected with 6-thioguanine (TG). TG resistance frequencies are plotted. No TG resistant clones were identified after one or two weeks of growth in medium without Dox. The HPRT 3 cell line was created by inserting the Ptet-HPRT construct and the tet-responsive transcription activator construct into the genome of a mouse cell line termed DIF6.
To determine if gene repression could induce silencing, three cell lines expressing HPRT under control of the Ptet promoter (Ptet-HPRT) were exposed to Dox for 7 days and then selected with TG in the absence of Dox. These cells lines were chosen because 1) each gave few or no spontaneous TG resistant clones and 2) Ptet-HPRT was integrated near the bacterial puromycin (pur) selectable gene, which allowed puromycin selection to be used to prevent deletion of Ptet-HPRT. […] For this experiment, 1×10^6 cells were exposed to 1 μM Dox for 7 days, the Dox was removed from the medium, the cells re-plated in 100 mm dishes at a density of 1×10^5 cells per dish and exposed to TG (5 μg/ml) and puromycin (1.5 μg/ml).

Ptet-HPRT [2] = assay: HPRT mRNA by qRT-PCR in Ptet-HPRT cells exposed to Dox; details: after removal of Dox from the medium
Description: The cell lines described in Example 1 were used to determine if gene silencing can be induced by transient reduction of gene expression. […] In other words, Dox can reduce but not eliminate gene expression. HPRT mRNA was restored to the original levels observed in the absence of Dox within 2 days after Dox was removed from the medium.

[3] = test system: silenced HPRT allele in H3TG3 cells; assay: HPRT reversion frequency of TG resistant cells with silenced Ptet-HPRT (HAz selection); details: 100 nM TSA and/or 300 nM 5-aza-dC for 24 hours, 24 hour recovery, HAz medium (FIG. 3)
Method: Reversion frequencies were determined for a cell line with a silenced HPRT allele after no treatment (Untreated), treatment with 300 nM 5-aza-2′-deoxycytidine (AzaC) for 24 hours, treatment with 100 nM trichostatin A (TSA) for 24 hours, or a combination of 5-Aza-dC and TSA at the same concentrations for 24 hours. Revertant cells were selected with medium containing hypoxanthine and azaserine.
TSA was therefore used as a probe to determine if histone deacetylation played a significant role in the silencing phenotype. […] For this experiment, 1×10^6 cells were plated in a T-75 flask and treated with 100 nM TSA for 24 hours. After an additional 24 hour recovery time, the cells were re-plated in 100 mm dishes (1×10^5 cells per dish) in HAz medium to select for cells that regained HPRT expression. […] For this experiment, the cells were treated identically to those used for the TSA experiment, except they were exposed to 300 nM 5-aza-dC instead.

Ptet-HPRT in HPRT9 cells = assay: Inhibition of Dox-induced HPRT silencing (TG resistant clones); details: 100 nM TSA or 300 nM 5-Aza-dC for the last 24 hours of 7 days 1 μM Dox; TG selection (FIG. 5)
Method: FIG. 5 is a series of digital images of dishes of TG resistant HPRT9 cells after various treatments. HPRT9 cells with Ptet-HPRT were exposed to 1 μM Dox for 7 days (Dox) to induce HPRT silencing. Some cells were also exposed 100 nM TSA (Dox+TSA) or 300 nM 5-Aza-dC (Dox+AzaC) on day 7 of Dox treatment. Control (Untreated) cells were not exposed to Dox, TSA, or 5-Aza-dC. 1×10^5 cells were plated per dish in TG medium and the dishes were stained after 12 days. The dark circles depict clones of cells that survived TG selection (TG resistant cells).
If so, silencing should be prevented by inhibiting histone deacetylation. To test this, experiments in which silencing is induced by exposure to Dox were repeated (see Example 2), but in this case the cells were exposed to TSA for the last 24 hours of Dox exposure.

Ptet-HPRT in HPRT3 cells = assay: Relative HPRT expression in Dox exposed cells treated with TSA (qRT-PCR); details: 1 μM Dox 7 days, TSA on day 7 (FIG. 6)
Method: FIG. 6 is a bar graph showing relative HPRT expression after Dox exposed HPRT3 cells were treated with TSA. The HPRT3 cells expressing Ptet-HPRT were treated with 1 μM Dox for 6 days and on day 7 some cells were exposed to both Dox and TSA (at concentrations shown). RNA was collected at the end of the 7th day and assayed for HPRT levels with qRT-PCR.

[4] = test system: BRCA1-HPRT construct (human BRCA1 promoter); assay: Reversion of hypoxia-induced TG resistant clones containing BRCA1-HPRT; details: for TSA-Induced Reversion Frequency: TSA 300 nM; for reversion / reactivation of hypoxia-induced BRCA1-HPRT TG resistant clones: TSA 300 nM (Table 3, FIG. 8), 5-Aza-dC concentration not given
Method: FIG. 8 is a bar graph showing reactivation frequency of BSH8 TG resistant clones treated with 300 nM TSA for 16 hours or in the absence of TSA (untreated).
(§1) To confirm that silencing (as opposed to mutation) was induced by hypoxia exposure, several BRCA1-HRPT TG resistant clones induced by hypoxia were expanded and tested to determine if they could yield revertant cells after exposure to TSA (300 nM) as presented in Example 3 for cells with silenced Ptet-HPRT constructs. […] Consistent with that result, HPRT mRNA was reduced in the TG resistant clones and restored in TSA-induced revertants.

BRCA1-HPRT in BSH8 cells = assay: Inhibition of hypoxia-induced silencing of BRCA1-HPRT (TG resistance frequency); details: hypoxia two weeks, TSA 24 hours prior to TG selection (FIG. 9)
Method: FIG. 9 is a bar graph showing TG resistance frequency for BSH8 cells exposed to normoxia or hypoxia for two weeks and then selected under normoxic conditions with TG. An aliquot of the hypoxia exposed cells was treated with TSA for 24 hours (hypoxia+TSA) prior to TG selection.
Two BRCA1-HPRT cell lines obtained with this approach (BSH2 and BSH8) were exposed to hypoxic conditions (growth in an atmosphere of about 95% nitrogen and 5% oxygen) for two weeks and then exposed to 2.5 μg/ml TG under hypoxic conditions for two additional weeks to select for TG resistant cells. […] Thus, the resistance phenotype became independent of hypoxia.
as §1

[5] = test system: silenced Aprt allele in D3, D7, D3S1 cells; assay: Aprt mRNA expression in cell lines with silenced Aprt (qRT-PCR); details: for increase of Aprt mRNA levels as compared to untreated cells: 300 nM TSA; for Aprt expression / mRNA levels after treatment: D7 cell line; for Aprt expression / mRNA levels after treatment / Aprt expression after treatment: overnight 3 μM 5-aza-dC or 300 nM TSA, 24 hours recovery (FIG. 12)
Method: FIG. 12 is a bar graph showing relative Aprt mRNA expression in parental cells with active Aprt expression (H22) and DAP-resistant cell lines with silenced Aprt expression (D7, D3, and D3S1) in untreated cells and cells treated with 3 μM 5-aza-dC or 300 nM TSA. Results are the average of triplicate reactions with error bars indicating the standard deviation.
Total RNA was isolated from cell cultures with the RNeasy® Mini Kit (Qiagen, Valencia, Calif.) according to the manufacturer's instructions. Total RNA samples were converted to cDNA using Quantitect® Reverse Transcription Kit (Qiagen, Valencia, Calif.) with removal of genomic DNA contamination. 100 ng cDNA was used as input in subsequent quantitative-PCR analysis for either Aprt amplification across the exon 2-3 splice site with the sense primer qAprt-F 5′-CTCTTGGCCAGTCACCTGAAG-3′ (SEQ ID NO: 4), the antisense primer qAprt-R 5′-TCTAGACCTGCGATGTAGTCGATCT-3′ (SEQ ID NO: 5) and the TaqMan probe 5′-FAM-CAC GCA CAG CGG C-MGB-3′ (SEQ ID NO: 6) or Gapdh (Mouse TaqMan Endogenous Control, Applied Biosystems) with iQ Supermix (Bio-Rad) and a Bio-Rad iCycler.
Cells were treated overnight (about 16 hours) with media containing 300 nM TSA (Wako USA, Richmond, Va.) to inhibit histone deacetylation, 3 μM 5-aza-dC (Sigma-Aldrich, St. Louis, Mo.) to inhibit DNA methylation, or the combination of 300 nM TSA and 3 μM 5-aza-dC. Cells were allowed to recover 24 hours in DMEM after drug treatment before harvesting for RNA purification.

BRCA1-HPRT [6] = assay: HPRT mRNA in BRCA1-HPRT transfectants exposed to CoCl2; details: 50 μM or 100 μM CoCl2 for two weeks (FIG. 10A)
Method: FIG. 10A is a bar graph showing HPRT mRNA levels (normalized to GAPDH) in BRCA1-HPRT transfectants exposed to 50 μM or 100 μM CoCl2 for two weeks.
(§2) BRCA1-HPRT and MLH1-HPRT cell lines as described in Example 5 were exposed to CoCl2 for two weeks, followed by selection of TG resistant clones. […] Expression from the MLH1 promoter was also repressed by exposure to CoCl2.

BRCA1-HPRT [7] = assay: TG resistance frequency of BRCA1-HPRT transfectants exposed to CoCl2; details: 50 μM or 100 μM CoCl2 for two weeks, then TG selection (FIG. 10B)
Method: FIG. 10B is a bar graph showing TG resistance frequency for BRCA1-HPRT transfectants exposed to 50 μM or 100 μM CoCl2 for two weeks, followed by TG selection.
as §2

[8] = test system: MLH1 promoter (MLH1-HPRT); assay: Expression from the MLH1 promoter in MLH1-HPRT cells exposed to CoCl2; details: CoCl2 exposure
Description: as §2

[9] = test system: silenced HPRT allele in H3TG3 cells; assay: Reactivation of silenced HPRT, mRNA by qRT-PCR; details: 5 or 15 μM SFN for 24 hours, RNA 24 hours after exposure; compared with 300 nM 5-aza-dC (FIG. 4)
Method: Relative levels of HPRT mRNA were determined in H3TG3 cells exposed to 300 nM 5-Aza-dC, 5 μM SFN, or 15 μM SFN for 24 hours. RNA was collected after an additional 24 hours and quantitative real time PCR (qRT-PCR) was used to determine mRNA levels, which were set to 1.0 for untreated cells.
RNA levels instead of reactivation frequencies were used as the endpoint for this experiment.

[10] = test system: reactivated HPRT in H4-derived clones; assay: Re-silencing frequency of reactivated Ptet-HPRT clones (TG selection); details: overnight 300 nM 5-aza-dC before TG selection (FIG. 15)
Method: FIG. 15 is a bar graph showing inactivation frequency of H4-derived clones with silenced and reactivated HPRT expression after overnight treatment with vehicle (Untreated), 300 nM 5-aza-dC (Aza-dC) or 100 nM TSA (TSA) before selecting against HPRT activity with TG. Frequencies represent the fraction of cell colonies surviving after two weeks of TG selection.
A DIF6 derived cell line expressing HPRT under the control of the Ptet system was established as described in Example 1. Gene silencing was induced following repression of HPRT expression in the presence of Dox and spontaneous reactivant cell lines that grew well in AzHx medium were isolated. Re-silencing frequency was measured in the presence of the DNA methylation inhibitor 5-aza-dC or the HDAC inhibitor TSA.

In the case of `C[C@H]1c2cccc(O)c2C(=O)C2=C(O)[C@]3(O)C(=O)C(C(N)=O)=C(O)[C@@H](N(C)C)[C@@H]3[C@@H](O)[C@@H]21` [Dox, doxycycline], the “Silencing Frequency” value (Ptet-HPRT [1]; HPRT 1 cell line) is reported as 9.4 × 10^−3, the “Silencing Frequency” value (Ptet-HPRT [1]; HPRT 3 cell line) is reported as 2.1 × 10^−4 and the “Silencing Frequency” value (Ptet-HPRT [1]; HPRT 4 cell line) is reported as 1.6 × 10^−4. For the same compound, the “time to restoration of HPRT mRNA to original levels after Dox was removed” value (Ptet-HPRT [2]) was ≤ 2 days.

For `CC(/C=C/C(=O)NO)=C\[C@@H](C)C(=O)c1ccc(N(C)C)cc1` [TSA, trichostatin A], the “frequency of revertant cells” value [3] was “increased”, the “induction of cells with silenced HPRT alleles” value (Ptet-HPRT in HPRT9 cells) was “significantly inhibited” and the “HPRT expression in the presence of Dox” value (Ptet-HPRT in HPRT3 cells) was “restored a level of HPRT expression”. The “TSA-Induced Reversion Frequency” value ([4]; TG cell line BSH8TG22) was 6.9 × 10^−4, the “TSA-Induced Reversion Frequency” value ([4]; TG cell line BSH8TG23) was 1.0 × 10^−4 and the “reversion / reactivation of hypoxia-induced BRCA1-HPRT TG resistant clones” value [4] was “induced revertant cells”. The “hypoxia-induced silencing of the BRCA1 promoter” value (BRCA1-HPRT in BSH8 cells) was “inhibited hypoxia-induced silencing”, the “increase of Aprt mRNA levels as compared to untreated cells” value ([5]; D3S1 cell line) was 8 fold and the “increase of Aprt mRNA levels as compared to untreated cells” value ([5]; D3 cell line) was 1.5 fold. For the same compound, the “Aprt expression / mRNA levels after treatment” value [5] was “no affect”.

In the case of `[Cl][Co][Cl]` [CoCl2, cobalt chloride], the BRCA1-HPRT expression (BRCA1-HPRT [6]) is reported as “repressed in a dose-dependent manner”, the TG-resistant clones (BRCA1-HPRT [7]) is reported as “only arose in BRCA1-HPRT cells exposed to 100 μM CoCl2” and the “Expression from the MLH1 promoter” value [8] is reported as “repressed”.

For `C[S+]([O-])CCCCN=C=S` (centres unmarked) [SFN, sulforaphane], the “reactivation of silenced HPRT allele (RNA levels)” value [9] was “reactivate the silenced HPRT allele in a dose dependent manner, and at levels greater than that for exposure with 5-aza-dC”.

In the case of `Nc1ncn([C@H]2C[C@H](O)[C@@H](CO)O2)c(=O)n1` [5-aza-dC, 5-aza-2′-deoxycytidine], the “frequency of revertant cells” value [3] is reported as “induced revertant cells”, the “induction of cells with silenced HPRT alleles” value (Ptet-HPRT in HPRT9 cells) is reported as “did not inhibit” and the “reversion / reactivation of hypoxia-induced BRCA1-HPRT TG resistant clones” value [4] is reported as “did not reactivate the silenced clones”. For the same compound, the “hypoxia-induced silencing of the BRCA1 promoter” value (BRCA1-HPRT in BSH8 cells) was “did not inhibit the induction of silencing”, the “Aprt expression after treatment” value ([5]; D3S1 cell line) was “reactivated expression” and the “Aprt expression after treatment” value ([5]; D3 cell line) was “reactivated expression”. The “Aprt expression / mRNA levels after treatment” value [5] was “did not alter expression” and the re-silencing frequency [10] was “essentially unchanged”.
